Laboratory results as given in patent US10221163B2 (priority 2015, dated 2019).
Read-outs that look alike come from different tables or passages of the source.

What was measured:
IMP-1 = IMP-1 (Serratia marcescens, UniProt P52699); experiment: biochemical; assay type: biochemical; settings: fluorescence assay, CCF2-FA substrate, 2 pM enzyme, 2 hours at 25° C.; read-out: IMP-1 IC50
Summary of the method: (§1)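 Class B activity is measured in the presence of compound by fluorescence with CCF2-FA after a 2-hour incubation at 25° C. IC50 is taken from a 4-parameter fit of semi-logarithmic dose-response data.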

NDM-1 = NDM-1 (Klebsiella pneumoniae, UniProt C7C422); experiment: biochemical; assay type: biochemical; settings: fluorescence assay, CCF2-FA substrate, 1 pM enzyme, 2 hours at 25° C.; read-out: NDM-1 IC50
Summary of the method: as §1

[1] = tested on: Escherichia coli expressing NDM-1 (CLB30005, CLB30016); assay type: cell-based; settings: NDM-1 strain, with imipenem 1 μg/ml, 95% inhibition of growth
Summary of the method: (§2)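 Clinical isolates (E. coli NDM-1, S. marcescens IMP-1, K. pneumoniae VIM-1) were diluted 1:100 from saline suspension into 1.1×CAMHB and exposed to test compound with imipenem at 1 μg/ml. Plates were incubated at 35° C for 22 hours to 24 hours, and growth was read by absorbance.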

[2] = tested on: Serratia marcescens expressing IMP-1 (CL5741); assay type: cell-based; settings: IMP-1 strain CL5741, with imipenem 1 μg/ml, 95% inhibition of growth
Summary of the method: as §2

[3] = tested on: Klebsiella pneumoniae expressing VIM-1 (IHMA599644); assay type: cell-based; settings: VIM-1 strain IHMA599644, with imipenem 1 μg/ml, 95% inhibition of growth
Summary of the method: as §2

[4] = tested on: Pseudomonas aeruginosa efflux− (MB9799), IMP-1; assay type: cell-based; settings: concentration restoring susceptibility to imipenem at 2 μg/mL in the presence of a class A, C, D serine β-lactamase inhibitor closely related to relebactam
Summary of the method: (§3)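 Microbroth MIC tests in PAO1-background strains with fixed imipenem and/or ceftazidime, usually at the CLSI breakpoint, plus fixed class A/C β-lactamase inhibitor against AmpC. MBL inhibitor titrated; concentration restoring susceptibility recorded and compared as fold difference between efflux+ MB9798 and efflux− MB9799.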

[5] = tested on: Pseudomonas aeruginosa efflux+ (MB9798), IMP-1; assay type: cell-based; settings: concentration restoring susceptibility to imipenem at 2 μg/mL in the presence of a class A, C, D serine β-lactamase inhibitor closely related to relebactam
Summary of the method: as §3

[6] = tested on: Pseudomonas aeruginosa MB9798 vs MB9799; settings: ratio MITC95 PA_9798/MITC95 PA_9799
Summary of the method: as §3

VIM-1 = VIM-1 (Pseudomonas aeruginosa (strain ATCC 15692 / DSM 22644 / CIP 104116 / JCM 14847 / LMG 12228 / 1C / PRS 101 / PAO1), UniProt A0A0F7KYQ8); experiment: biochemical; settings: CCF2-FA substrate, 30 pM enzyme, 2 hours at 25° C.
Summary of the method: as §1

[7] = fluorescence assay, read-out: VIM-1 IC50

NDM-1, sequence (C7C422 whole entry, looked up, species assumed): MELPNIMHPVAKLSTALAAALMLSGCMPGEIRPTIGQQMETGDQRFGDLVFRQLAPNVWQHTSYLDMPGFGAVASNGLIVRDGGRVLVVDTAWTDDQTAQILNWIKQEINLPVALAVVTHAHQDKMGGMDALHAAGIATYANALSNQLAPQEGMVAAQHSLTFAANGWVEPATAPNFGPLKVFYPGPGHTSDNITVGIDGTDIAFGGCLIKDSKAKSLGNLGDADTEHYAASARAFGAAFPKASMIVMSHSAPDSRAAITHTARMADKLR
IMP-1, sequence (P52699 whole entry, looked up, species assumed): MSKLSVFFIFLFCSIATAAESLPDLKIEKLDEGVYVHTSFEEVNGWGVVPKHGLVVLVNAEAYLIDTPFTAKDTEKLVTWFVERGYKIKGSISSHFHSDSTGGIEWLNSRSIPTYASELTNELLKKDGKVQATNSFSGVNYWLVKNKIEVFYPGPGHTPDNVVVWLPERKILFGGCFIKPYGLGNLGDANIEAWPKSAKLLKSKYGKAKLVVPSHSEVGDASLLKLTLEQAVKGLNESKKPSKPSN

Structure (SMILES) | IC50 (IMP-1) | IC50 (NDM-1) | Escherichia coli MITC95 [1] | Serratia marcescens MITC95 [2] | Klebsiella pneumoniae MITC95 [3] | P. aeruginosa expressing IMP-1, efflux − (MB9799) MITC95 [4] | P. aeruginosa expressing IMP-1, efflux + (MB9798) MITC95 [5] | Efflux ratio [6] | IC50 (VIM-1; VIM-1 IC50, fluorescence assay) | IC50 (VIM-1; [7])
NCCN1CC[C@@H](NS(=O)(=O)c2ccc(-c3cccc4[nH]c(N)nc34)c(-c3nn[nH]n3)c2S(N)(=O)=O)C1 [Example 246, (R)-4-(2-amino-1H-benzo[d]imidazol-4-yl)-N1-(1-(2-aminoethyl)pyrrolidin-3-yl)-3-(2H-tetrazol-5-yl)benzene-1,2-disulfonamide] | 852 pM | 40.5 pM | 0.7813 µM | 1.563 µM | 1.563 µM | 0.7813 µM | 1.563 µM | 2.00 | 120 pM | 
NCC(CO)(CO)NS(=O)(=O)c1ccc(-c2cccc3[nH]c(N)nc23)c(-c2nn[nH]n2)c1S(N)(=O)=O [Example 247, 4-(2-amino-1H-benzo[d]imidazol-4-yl)-N-1-(1-amino-3-hydroxy-2-(hydroxymethyl)propan-2-yl)-3-(2H-tetrazol-5-yl)benzene-1,2-disulfonamide] | 504 pM | 33.1 pM | 0.7813 µM | 1.563 µM | 3.125 µM | 0.7813 µM | 1.563 µM | 2.00 |  | 149 pM
Nc1nc2c(-c3ccc(S(=O)(=O)NC[C@]4(N)CCNC4)c(S(N)(=O)=O)c3-c3nn[nH]n3)cccc2[nH]1 [Example 250, (S)-4-(2-amino-1H-benzo[d]imidazol-4-yl)-N1-((3-aminopyrrolidin-3-yl)methyl)-3-(2H-tetrazol-5-yl)benzene-1,2-disulfonamide] | 513 pM | 33.5 pM | 0.3906 µM | 0.7813 µM | 1.563 µM | 0.7813 µM | 0.7813 µM | 1.00 |  | 200 pM
Nc1nc2c(-c3ccc(S(=O)(=O)NC[C@@]4(N)CCNC4)c(S(N)(=O)=O)c3-c3nn[nH]n3)cccc2[nH]1 [Example 251, (R)-4-(2-amino-1H-benzo[d]imidazol-4-yl)-N1-((3-aminopyrrolidin-3-yl)methyl)-3-(2H-tetrazol-5-yl)benzene-1,2-disulfonamide] | 755 pM | 56.7 pM | 0.7813 µM | 0.7813 µM | 1.563 µM | 0.7813 µM | 0.7813 µM | 1.00 |  | 194 pM
Nc1nc2c(-c3ccc(S(=O)(=O)NC4CNC4)c(S(N)(=O)=O)c3-c3nn[nH]n3)cccc2[nH]1 [Example 252, 4-(2-amino-1H-benzo[d]imidazol-4-yl)-N1-(azetidin-3-yl)-3-(2H-tetrazol-5-yl)benzene-1,2-disulfonamide] | 654 pM | 42.6 pM | 0.4271 µM | 0.7383 µM | 0.8359 µM | 0.6133 µM | 0.418 µM | 0.68 |  | 149 pM
CN(C1CNC1)S(=O)(=O)c1ccc(-c2cccc3[nH]c(N)nc23)c(-c2nn[nH]n2)c1S(N)(=O)=O [Example 255, 4-(2-amino-1H-benzo[d]imidazol-4-yl)-N1-(azetidin-3-yl)-N1-methyl-3-(2H-tetrazol-5-yl)benzene-1,2-disulfonamide] | 2840 pM | 113 pM | 0.3906 µM | 0.7813 µM | 0.7813 µM | 0.7813 µM | 1.563 µM | 2.00 |  | 936 pM
CN1CC(NS(=O)(=O)c2ccc(-c3cccc4[nH]c(N)nc34)c(-c3nn[nH]n3)c2S(N)(=O)=O)C1 [Example 256, 4-(2-amino-1H-benzo[d]imidazol-4-yl)-N1-(1-methylazetidin-3-yl)-3-(2H-tetrazol-5-yl)benzene-1,2-disulfonamide] | 609 pM | 41.6 pM | 0.3906 µM | 0.7813 µM | 1.563 µM | 0.7813 µM | 0.7813 µM | 1.00 |  | 168 pM
CC1(NS(=O)(=O)c2ccc(-c3cccc4[nH]c(N)nc34)c(-c3nn[nH]n3)c2S(N)(=O)=O)CNC1 [Example 257] | 642 pM | 33 pM | 0.3906 µM | 0.7813 µM | 0.7813 µM | 0.7813 µM | 0.7813 µM | 1.00 | 157 pM | 
NCCCCNS(=O)(=O)c1ccc(-c2cccc3[nH]c(N)nc23)c(-c2nn[nH]n2)c1S(N)(=O)=O [Example 258, 4-(2-amino-1H-benzo[d]imidazol-7-yl)-N1-(4-aminobutyl)-3-(2H-tetrazol-5-yl)benzene-1,2-disulfonamide] | 691 pM | 53.5 pM | 0.1953 µM | 0.7813 µM | 1.563 µM | 0.7813 µM | 0.7813 µM | 1.00 |  | 156 pM
Nc1nc2c(-c3ccc(S(=O)(=O)NC[C@H]4CCNC4)c(S(N)(=O)=O)c3-c3nn[nH]n3)cccc2[nH]1 [Example 259, (S)-4-(2-amino-1H-benzo[d]imidazol-4-yl)-N1-(pyrrolidin-3-ylmethyl)-3-(2H-tetrazol-5-yl)benzene-1,2-disulfonamide] | 836 pM | 55.5 pM | 0.3906 µM | 0.7813 µM | 1.563 µM | 0.7813 µM | 0.7813 µM | 1.00 | 229 pM | 
Nc1nc2c(-c3ccc(S(=O)(=O)NC4CCNCC4)c(S(N)(=O)=O)c3-c3nn[nH]n3)cccc2[nH]1 [Example 260, 4-(2-amino-1H-benzo[d]imidazol-4-yl)-N1-(piperidin-4-yl)-3-(1H-tetrazol-5-yl)benzene-1,2-disulfonamide] | 648 pM | 43.1 pM | 0.7813 µM | 1.563 µM | 1.563 µM | 0.7813 µM | 0.7813 µM | 1.00 |  | 151 pM
